Data: patent US7541367B2, “3-benzoimidazolyl-pyrazolopyridines useful in treating kinase disorders” (Janssen Pharmaceutica, N.V., priority 2005, dated 2009)

Legend:
Format in all cases: biochemical
[1] = target: T1, CDK1 (Homo sapiens, UniProt P06493); assay: CDK-1 kinase screening assay (33P-ATP FlashPlate); settings: human CDK1 with cyclin B; 10 μM ATP; 1 hr at 30° C
T1 construct: purchased New England Biolabs, Beverly, Mass; 6020; host or cells: insect cells

[2] = target: T2, VEGF-R2 (Rattus norvegicus, UniProt O08775); assay: VEGF-R2 kinase screening assay (33P-ATP FlashPlate); settings: rat VEGF-R2 kinase domain; 10 μM ATP; 1 hr at 30° C;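 also: Read-out is ³³P incorporation from ³³P-γ-ATP into biotinylated peptide substrate captured on streptavidin FlashPlate, counted by scintillation, 1% DMSO final, inhibition scaled between per-plate maximum and minimum signals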
T2 construct: polyhistidine (N)

[3] = target: T3, HER2 (Homo sapiens, UniProt P04626); assay: HER2 kinase screening assay (33P-ATP FlashPlate); settings: GST-HIS6 HER-2 aa 679 to 1255; 10 μM ATP; 1 hr at 30° C;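 also: Biotin-poly(GT) 4:1 peptide captured on streptavidin FlashPlate, 33P transfer from γ-ATP read by scintillation counting, lower incorporation means inhibition, 1% DMSO final, 100 µL reaction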
T3 construct: GST (Glutathione-S-Transferase) (N); HIS6 (N); thrombin cleavage site (N); purchased Proqinase, Freiburg, Germany

[4] = target: T4, Aurora-A (Mus musculus, UniProt P97477); assay: Aurora-A kinase screening assay (33P-ATP FlashPlate); settings: 10 μM ATP, 1 hr at 30° C;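 also: His-tagged mouse Aurora-A phosphorylating a biotinylated peptide captured on streptavidin plates, read as 33P uptake by scintillation counting, 1% DMSO, inhibition scaled between per-plate maximum and minimum signals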
T4 construct: polyhistidine (N)
T4 sequence (P97477 1-395): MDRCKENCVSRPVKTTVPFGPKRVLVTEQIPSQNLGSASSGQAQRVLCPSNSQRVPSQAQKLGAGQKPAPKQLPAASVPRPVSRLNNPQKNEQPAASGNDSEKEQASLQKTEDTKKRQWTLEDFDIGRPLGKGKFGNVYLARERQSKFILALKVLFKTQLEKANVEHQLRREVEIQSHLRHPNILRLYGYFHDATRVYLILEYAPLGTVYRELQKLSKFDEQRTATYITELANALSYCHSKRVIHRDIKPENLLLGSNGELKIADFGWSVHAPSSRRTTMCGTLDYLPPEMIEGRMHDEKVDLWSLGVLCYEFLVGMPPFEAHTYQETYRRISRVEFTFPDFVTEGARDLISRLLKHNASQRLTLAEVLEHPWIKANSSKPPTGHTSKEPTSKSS

[5] = target: T5, RET (Homo sapiens, UniProt P07949); assay: RET kinase screening assay (33P-ATP FlashPlate); settings: human RET kinase domain; 10 μM ATP; 1 hr at 30° C;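 also: biotinylated peptide substrate captured on streptavidin FlashPlate, 33P phosphate transfer read by scintillation counting, 1% DMSO, lower incorporation means inhibition, percent relative to per-plate maximum and minimum signals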
T5 construct: polyhistidine (N)
T5 sequence (P07949 658-1114 limits assumed): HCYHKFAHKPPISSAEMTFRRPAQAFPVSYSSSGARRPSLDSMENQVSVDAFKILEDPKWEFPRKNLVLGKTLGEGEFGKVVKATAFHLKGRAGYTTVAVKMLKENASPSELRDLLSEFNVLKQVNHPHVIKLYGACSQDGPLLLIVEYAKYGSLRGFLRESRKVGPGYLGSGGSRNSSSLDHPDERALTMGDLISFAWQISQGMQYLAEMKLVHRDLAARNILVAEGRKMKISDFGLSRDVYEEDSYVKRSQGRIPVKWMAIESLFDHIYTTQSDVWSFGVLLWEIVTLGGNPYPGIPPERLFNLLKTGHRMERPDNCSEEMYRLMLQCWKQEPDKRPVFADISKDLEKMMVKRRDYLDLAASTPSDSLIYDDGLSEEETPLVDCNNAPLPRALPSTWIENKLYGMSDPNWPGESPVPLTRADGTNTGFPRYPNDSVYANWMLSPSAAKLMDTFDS

[6] = target: T6, c-Src kinase (Homo sapiens, UniProt P12931); assay: c-Src Kinase Assay; settings: 5 μM ATP
T6 construct: purchased Upstate Biotechnology, Lake Placid, N.Y
Summary of the method: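 Human c-Src phosphorylated Cdc2 peptide (100 μM) […]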

T1 sequence (P06493 whole entry): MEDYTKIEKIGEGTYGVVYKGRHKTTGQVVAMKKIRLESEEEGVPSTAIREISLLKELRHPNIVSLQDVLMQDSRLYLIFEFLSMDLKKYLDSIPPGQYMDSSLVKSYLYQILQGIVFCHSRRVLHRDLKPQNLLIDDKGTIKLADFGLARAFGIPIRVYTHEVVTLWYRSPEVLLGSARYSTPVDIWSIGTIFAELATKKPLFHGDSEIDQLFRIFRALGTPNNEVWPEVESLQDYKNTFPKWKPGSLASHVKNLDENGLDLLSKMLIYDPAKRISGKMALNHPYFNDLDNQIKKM
T1 sequence (P14635 whole entry partner): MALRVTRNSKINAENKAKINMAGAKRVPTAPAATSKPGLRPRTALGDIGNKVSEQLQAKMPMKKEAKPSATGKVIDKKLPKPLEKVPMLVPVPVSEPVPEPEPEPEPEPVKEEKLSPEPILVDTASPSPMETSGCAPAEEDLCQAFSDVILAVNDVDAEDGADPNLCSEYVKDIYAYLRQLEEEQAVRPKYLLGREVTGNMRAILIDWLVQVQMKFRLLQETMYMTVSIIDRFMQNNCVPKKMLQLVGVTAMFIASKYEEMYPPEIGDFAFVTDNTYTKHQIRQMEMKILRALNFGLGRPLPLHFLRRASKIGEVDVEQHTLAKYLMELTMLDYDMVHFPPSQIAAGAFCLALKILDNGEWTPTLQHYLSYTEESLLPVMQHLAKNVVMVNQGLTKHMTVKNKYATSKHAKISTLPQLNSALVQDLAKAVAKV
T2 sequence (O08775 786-1343): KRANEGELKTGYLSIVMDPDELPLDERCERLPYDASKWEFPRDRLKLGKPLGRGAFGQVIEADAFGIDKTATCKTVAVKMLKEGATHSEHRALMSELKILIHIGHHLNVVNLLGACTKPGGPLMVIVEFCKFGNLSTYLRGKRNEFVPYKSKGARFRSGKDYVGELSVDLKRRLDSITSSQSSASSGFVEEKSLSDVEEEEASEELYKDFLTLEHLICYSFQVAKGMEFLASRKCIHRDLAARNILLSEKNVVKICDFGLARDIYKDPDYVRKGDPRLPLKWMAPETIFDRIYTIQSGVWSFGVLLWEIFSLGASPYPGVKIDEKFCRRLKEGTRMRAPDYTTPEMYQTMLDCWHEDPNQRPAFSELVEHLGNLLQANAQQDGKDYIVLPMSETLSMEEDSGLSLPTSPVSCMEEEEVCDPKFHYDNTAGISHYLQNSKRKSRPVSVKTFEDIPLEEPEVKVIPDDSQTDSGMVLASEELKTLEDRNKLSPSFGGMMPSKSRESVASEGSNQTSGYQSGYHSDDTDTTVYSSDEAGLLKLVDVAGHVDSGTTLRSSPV
T6 sequence (P12931 whole entry): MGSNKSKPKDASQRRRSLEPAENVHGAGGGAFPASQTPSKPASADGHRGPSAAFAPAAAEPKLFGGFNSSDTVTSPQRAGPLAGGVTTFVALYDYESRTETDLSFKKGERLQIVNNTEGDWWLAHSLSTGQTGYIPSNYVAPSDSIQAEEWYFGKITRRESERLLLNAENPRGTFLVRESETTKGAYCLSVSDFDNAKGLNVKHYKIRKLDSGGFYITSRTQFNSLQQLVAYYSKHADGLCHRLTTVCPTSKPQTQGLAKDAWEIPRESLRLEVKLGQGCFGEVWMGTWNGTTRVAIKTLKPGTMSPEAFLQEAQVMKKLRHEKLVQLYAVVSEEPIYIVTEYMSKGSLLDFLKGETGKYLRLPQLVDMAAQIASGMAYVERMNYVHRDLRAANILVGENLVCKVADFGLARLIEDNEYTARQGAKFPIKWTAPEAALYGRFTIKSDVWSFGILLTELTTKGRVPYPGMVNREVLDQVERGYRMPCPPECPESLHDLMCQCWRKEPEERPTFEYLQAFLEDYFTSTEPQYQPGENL
T3 sequence (P04626 679-1255): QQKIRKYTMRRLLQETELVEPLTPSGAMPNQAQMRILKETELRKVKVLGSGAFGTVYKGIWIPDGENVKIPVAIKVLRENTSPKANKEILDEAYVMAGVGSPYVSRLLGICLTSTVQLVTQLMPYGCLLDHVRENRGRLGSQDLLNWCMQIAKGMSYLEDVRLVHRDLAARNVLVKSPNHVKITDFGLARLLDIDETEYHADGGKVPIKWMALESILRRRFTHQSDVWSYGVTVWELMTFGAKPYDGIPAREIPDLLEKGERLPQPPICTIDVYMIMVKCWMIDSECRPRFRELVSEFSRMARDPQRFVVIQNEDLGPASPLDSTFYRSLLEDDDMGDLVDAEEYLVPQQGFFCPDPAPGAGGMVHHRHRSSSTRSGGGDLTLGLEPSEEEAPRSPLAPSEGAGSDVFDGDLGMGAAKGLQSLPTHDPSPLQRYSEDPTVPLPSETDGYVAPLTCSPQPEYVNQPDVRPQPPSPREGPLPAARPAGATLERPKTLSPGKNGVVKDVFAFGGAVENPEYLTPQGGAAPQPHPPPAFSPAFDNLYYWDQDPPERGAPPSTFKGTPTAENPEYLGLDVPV

SMILES | IC50 [1] | IC50 [2] | IC50 [3] | IC50 [4] | IC50 [5] | IC50 [6]
CNCc1cncc(-c2cnc3[nH]nc(-c4nc5cc(OC(F)(F)F)ccc5[nH]4)c3c2)c1 [Cpd 96, methyl-{5-[3-(5-trifluoromethoxy-1H-benzoimidazol-2-yl)-1H-pyrazolo[3,4-b]pyridin-5-yl]-pyridin-3-ylmethyl}-amine] | 0.9 to 1.3 nM | > 100 nM | 3820 nM | ~1000 nM | > 100000 nM | 31.2 nM
CCNCc1cncc(-c2cnc3[nH]nc(-c4nc5cc(OC)ccc5[nH]4)c3c2)c1 [Cpd 101, ethyl-{5-[3-(5-methoxy-1H-benzoimidazol-2-yl)-1H-pyrazolo[3,4-b]pyridin-5-yl]-pyridin-3-ylmethyl}-amine] | 0.8 nM | > 100 nM | 4170 nM | 356 nM | ~1000 nM | 8.85 nM
